ChEMBL document CHEMBL1201862, “PubChem BioAssay data set” (2004)
Active and inactive are the calls of the source.

Key:
Protein skinhead-1 = molecular target: T1, Protein skinhead-1 (Caenorhabditis elegans, UniProt P34707); format: functional
T1 sequence (P34707 whole entry): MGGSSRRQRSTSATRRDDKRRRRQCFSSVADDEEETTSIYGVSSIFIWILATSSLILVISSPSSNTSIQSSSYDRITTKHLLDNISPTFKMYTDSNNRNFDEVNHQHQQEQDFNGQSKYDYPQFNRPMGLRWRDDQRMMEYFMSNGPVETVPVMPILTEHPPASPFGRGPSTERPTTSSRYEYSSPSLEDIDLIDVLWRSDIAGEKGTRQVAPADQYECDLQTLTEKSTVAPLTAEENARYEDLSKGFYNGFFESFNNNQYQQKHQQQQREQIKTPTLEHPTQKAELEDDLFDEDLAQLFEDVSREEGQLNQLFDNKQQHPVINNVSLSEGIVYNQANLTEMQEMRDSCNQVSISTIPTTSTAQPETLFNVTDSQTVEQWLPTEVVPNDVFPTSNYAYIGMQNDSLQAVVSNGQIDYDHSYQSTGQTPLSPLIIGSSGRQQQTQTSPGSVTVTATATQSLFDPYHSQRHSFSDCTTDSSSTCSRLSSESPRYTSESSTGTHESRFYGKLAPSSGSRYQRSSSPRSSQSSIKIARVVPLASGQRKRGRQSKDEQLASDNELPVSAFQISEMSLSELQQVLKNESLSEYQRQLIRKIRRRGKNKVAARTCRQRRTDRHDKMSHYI

P388/ADR = assay: cells; format: functional; settings: Mus musculus
SN12K1 = assay: cells; format: functional; settings: Homo sapiens, SN12K1
P388 = assay: cells; format: functional; settings: Mus musculus, P388
[1] = molecular target: T2, Short transient receptor potential channel 4 (Mus musculus, UniProt Q9QUQ5); assay: mouse TRPC4 channel activators, dose response, cell-based, HEK293 TRPC4/mu-opioid, Fluo-4 calcium (AID 434937); format: functional
T2 sequence (Q9QUQ5 whole entry): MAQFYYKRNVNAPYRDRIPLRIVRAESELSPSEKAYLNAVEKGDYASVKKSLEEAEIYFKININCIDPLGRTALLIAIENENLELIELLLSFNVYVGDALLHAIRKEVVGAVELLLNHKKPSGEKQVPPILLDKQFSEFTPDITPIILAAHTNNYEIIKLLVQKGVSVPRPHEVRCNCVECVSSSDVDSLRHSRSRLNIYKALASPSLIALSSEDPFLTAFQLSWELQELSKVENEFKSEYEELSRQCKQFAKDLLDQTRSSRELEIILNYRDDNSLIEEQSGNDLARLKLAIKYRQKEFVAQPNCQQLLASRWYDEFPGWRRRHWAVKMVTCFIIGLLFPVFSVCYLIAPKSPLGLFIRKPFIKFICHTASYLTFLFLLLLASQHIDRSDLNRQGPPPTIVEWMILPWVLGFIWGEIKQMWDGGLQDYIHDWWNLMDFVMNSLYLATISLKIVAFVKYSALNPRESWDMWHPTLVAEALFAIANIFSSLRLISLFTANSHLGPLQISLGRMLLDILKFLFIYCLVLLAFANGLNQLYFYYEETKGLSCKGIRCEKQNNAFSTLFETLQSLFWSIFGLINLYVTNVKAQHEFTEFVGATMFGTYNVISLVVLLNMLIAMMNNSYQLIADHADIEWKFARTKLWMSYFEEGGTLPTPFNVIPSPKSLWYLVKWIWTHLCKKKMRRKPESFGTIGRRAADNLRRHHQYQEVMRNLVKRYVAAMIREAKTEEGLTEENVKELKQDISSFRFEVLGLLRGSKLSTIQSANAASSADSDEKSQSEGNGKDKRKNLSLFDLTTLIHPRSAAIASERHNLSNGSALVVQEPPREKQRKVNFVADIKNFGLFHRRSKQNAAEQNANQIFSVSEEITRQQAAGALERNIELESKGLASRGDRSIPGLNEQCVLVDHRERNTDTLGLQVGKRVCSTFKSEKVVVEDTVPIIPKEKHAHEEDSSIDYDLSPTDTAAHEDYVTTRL

[2] = intracellular Trypanosoma cruzi inhibitors in host cells – cell-based, plate reader, cherry-pick samples, set 3, dose response (AID 651818); format: functional;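 note: compounds incubated with infected cells for about four days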
[3] = Luminescence Cell-Based Dose Confirmation HTS to Identify Inhibitors of Platelet Dense Granule Release. [Related pubchem assays: 1663 (Primary HTS), 1678 (Summary of Project)]; format: functional
[4] = molecular target: Luciferin 4-monooxygenase (Photinus pyralis, UniProt P08659); assay: firefly luciferase enzyme inhibitors, dose response, biochemical, luminescence (AID 1891)
H9c2 = assay: cells; format: functional, cell-based; settings: Rattus norvegicus, H9c2, Myocardium;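 note: confirmatory concentration-response retest of ultra-high-throughput screening hits for modulation of myocardial damage; cell death induced by hydrogen peroxide oxidative stress; compound pretreatment for 60 min then peroxide exposure for 2 h; potency is for protecting the cells against peroxide damage rather than for killing them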
[5] = molecular target: Glyceraldehyde-3-phosphate dehydrogenase (Homo sapiens, UniProt P04406)
[6] = molecular target: T3, Ubiquitin-conjugating enzyme E2 N (Homo sapiens, UniProt P61088); format: functional;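 note: Dose-response confirmation in a TR-FRET assay detecting UBC13-driven polyubiquitin chain formation, inhibition measured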
T3 sequence (P61088 whole entry): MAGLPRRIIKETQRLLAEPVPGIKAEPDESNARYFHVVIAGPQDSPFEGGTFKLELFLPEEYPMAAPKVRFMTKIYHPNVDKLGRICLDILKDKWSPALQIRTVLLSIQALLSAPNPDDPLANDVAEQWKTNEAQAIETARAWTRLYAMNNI

H4 = assay: Luminescence Cell-Based Dose Response HTS to Identify Activators of 5'UTR Stem-Loop Driven Prion Protein mRNA Translation in H4 Neuroglioblastoma Cells. [Related pubchem assays: 1829 (Project Summary), 1814 (Primary HTS)]; format: functional; settings: Homo sapiens
[7] = Luminescence Cell-Based Dose Confirmation HTS to Identify Activators of 5'UTR Stem-Loop Driven Alpha-Synuclein mRNA Translation in H4 Neuroglioblastoma Cells. [Related pubchem assays: 1829 (Project Summary), 1814 (Primary HTS)]; format: functional
[8] = Luminescence Cell-Based Dose Response HTS to Identify Activators of Luciferase Translation or Activity in H4 […] Cells. [Related pubchem assays: 1829 (Project Summary), 1814 (Primary HTS)]; format: functional
[9] = LGR2 antagonists, dose response, cell-based, HEK293, CRE-luciferase reporter, cherry pick, set 2 (AID 743343); format: functional;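 note: transfected cells were stimulated with diluted bursicon conditioned medium after compound addition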
[10] = inhibitors of firefly luciferase expression or activity, dose response, H4 neuroglioma cells, luminescence (AID 1990); format: functional, cell-based
[11] = Luminescence Cell-Based Dose Response HTS to Identify Inhibitors of 5'UTR Stem-Loop Driven Prion Protein mRNA Translation in H4 Neuroglioblastoma Cells. [Related pubchem assays: 1827 (Project Summary), 1813 (Primary HTS)]; format: functional
[12] = molecular target: T4, Heat shock factor protein 1 (Mus musculus, UniProt P38532); assay: inhibition of MG132-induced HSE-luciferase signal, confirmation, cell-based, NIH3T3, luminescence, dose retest (AID 2382); format: functional;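 note: NIH3T3 fibroblasts with HSF1-driven luciferase reporter stressed by proteasome inhibitor MG132; luminescence from HSF1-driven luciferase expression after 8 hours of MG132 stress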
T4 sequence (P38532 whole entry): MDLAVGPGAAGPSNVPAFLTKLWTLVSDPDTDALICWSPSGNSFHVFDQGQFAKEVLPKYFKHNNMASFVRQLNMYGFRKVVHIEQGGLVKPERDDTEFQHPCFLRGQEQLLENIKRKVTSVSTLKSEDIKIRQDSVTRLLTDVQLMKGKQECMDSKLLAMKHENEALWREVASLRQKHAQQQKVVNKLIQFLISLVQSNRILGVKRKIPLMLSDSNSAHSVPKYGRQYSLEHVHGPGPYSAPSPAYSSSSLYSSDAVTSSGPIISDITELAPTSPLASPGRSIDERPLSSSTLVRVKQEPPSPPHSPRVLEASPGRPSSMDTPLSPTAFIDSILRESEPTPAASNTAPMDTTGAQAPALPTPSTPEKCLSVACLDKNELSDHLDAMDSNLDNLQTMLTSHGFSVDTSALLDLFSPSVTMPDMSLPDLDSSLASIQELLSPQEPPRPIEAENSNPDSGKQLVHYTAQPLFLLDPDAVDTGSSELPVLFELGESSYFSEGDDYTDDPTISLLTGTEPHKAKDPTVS

[13] = A549 cell cytotoxicity, dose response, cytotoxicity control, plate reader, cherry-pick, antagonist series (AID 743412); format: functional, cell-based
[14] = inhibitors of SNCA 5'UTR-driven reporter translation, confirmation, H4 neuroglioma cells, luminescence (AID 1988); format: functional, cell-based
[15] = MC4R antagonists, dose response, counter-screen for LGR2 antagonist project, cell-based, plate reader, cherry pick (AID 743444); format: functional;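 note: transfected HEK 293 cells stimulated with alpha-MSH peptide; potency of inhibitors of the alpha-MSH evoked signal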

Sequence of Glyceraldehyde-3-phosphate dehydrogenase (P04406 whole entry): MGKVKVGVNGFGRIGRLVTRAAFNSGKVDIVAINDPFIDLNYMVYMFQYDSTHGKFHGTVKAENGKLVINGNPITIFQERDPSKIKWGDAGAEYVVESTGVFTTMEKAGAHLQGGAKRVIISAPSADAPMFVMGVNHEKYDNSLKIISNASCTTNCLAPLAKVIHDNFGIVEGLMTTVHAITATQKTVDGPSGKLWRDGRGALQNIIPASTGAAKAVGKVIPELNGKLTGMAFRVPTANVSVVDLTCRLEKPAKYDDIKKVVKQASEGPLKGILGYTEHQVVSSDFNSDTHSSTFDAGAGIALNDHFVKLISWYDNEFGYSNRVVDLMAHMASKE
Sequence of Luciferin 4-monooxygenase (P08659 whole entry): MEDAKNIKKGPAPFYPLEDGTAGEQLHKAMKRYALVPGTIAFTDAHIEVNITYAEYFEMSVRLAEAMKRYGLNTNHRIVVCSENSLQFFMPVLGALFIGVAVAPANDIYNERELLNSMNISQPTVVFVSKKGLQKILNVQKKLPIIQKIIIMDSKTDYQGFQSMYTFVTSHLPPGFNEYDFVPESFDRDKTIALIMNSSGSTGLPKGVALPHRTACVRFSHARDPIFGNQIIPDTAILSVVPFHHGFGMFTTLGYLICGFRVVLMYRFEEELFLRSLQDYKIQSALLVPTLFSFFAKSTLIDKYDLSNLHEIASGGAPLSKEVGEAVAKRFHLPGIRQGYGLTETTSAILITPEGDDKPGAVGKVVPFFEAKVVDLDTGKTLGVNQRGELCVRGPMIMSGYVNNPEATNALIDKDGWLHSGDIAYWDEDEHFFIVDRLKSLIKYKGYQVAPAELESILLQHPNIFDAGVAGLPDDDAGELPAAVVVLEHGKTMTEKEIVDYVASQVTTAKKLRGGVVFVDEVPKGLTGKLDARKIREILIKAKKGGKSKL

Cc1cc(C(=O)CSc2nnc(C3COc4ccccc4O3)n2C)c(C)n1-c1ccc(F)cc1 (configuration not stated)
IC50 (Protein skinhead-1): > 100 µM (inactive)

CN(C)CC(CC1=C(CC(CN(C)C)N(C)C)CCC1)N(C)C (configuration not stated)
GI50 (P388/ADR): > 100 µM (inactive)
GI50 (SN12K1): > 100 µM (inactive)
GI50 (P388): > 100 µM (inactive)

CCC1CCCCN1S(=O)(=O)c1ccc(C(=O)N(CCCN(C)C)c2nc3cc4c(cc3s2)OCO4)cc1 (configuration not stated)
EC50 [1]: 6.68 µM (active)

COc1ccccc1N1CCN(C(c2cccs2)C(C)NC(=O)c2cccs2)CC1 (configuration not stated)
EC50 [1]: 0.335 µM (active)

C[C@@H]1CN([C@@H](C)CO)C(=O)c2cccc(NC(=O)c3ccc(-c4nccs4)cc3)c2O[C@@H]1CN(C)Cc1ccc(C(=O)Nc2ccccc2N)cc1
AC50 [2]: 1.61 µM (active)

COc1ccc(CN(C(=O)c2oc3ccccc3c2C)C2CCS(=O)(=O)C2)cc1 (configuration not stated)
IC50 (Protein skinhead-1): > 100 µM (inactive)

Clc1ccccc1-c1nc(N/N=C/c2cccnc2)c2ccccc2n1
EC50 [3]: > 112 µM (not active)
EC50 [4]: > 112 µM (not active)
IC50 (H9c2): > 79 µM (inactive)

CCOc1ccc(S(=O)(=O)Nc2ccc(O)c(C(=O)O)c2)cc1
IC50 [5]: > 100 µM (not active)

COc1ccc(CN(C)C[C@H]2Oc3c(NC(=O)Nc4ccc(C(F)(F)F)cc4)cccc3C(=O)N([C@H](C)CO)C[C@@H]2C)cc1
AC50 [2]: 3.26 µM (active)

CN(C)C(=O)/C=C/c1c[nH]c(=O)[nH]c1=O
GI50 (P388/ADR): > 281 µM (inactive)
GI50 (SN12K1): > 500 µM (inactive)
GI50 (P388): > 281 µM (inactive)

CC1OC(O[C@@H]2C=C3CC[C@@H]4[C@H](CC[C@]5(C)[C@@H](c6ccc(=O)oc6)CC[C@]45O)[C@@]3(C)CC2)C(O)C(O)C1O (some centres not stated)
GI50 (P388/ADR): 47.1 µM (inactive)
GI50 (P388): 20.7 µM (inactive)

O=C(N/N=C/c1ccco1)C1COc2ccccc2O1 (configuration not stated)
EC50 [1]: 4.22 µM (active)

COc1ccc(NC(=O)Nc2ccc3c(c2)C(=O)N([C@@H](C)CO)C[C@H](C)[C@@H](CN(C)Cc2ccc(-c4ccccc4)cc2)O3)cc1
AC50 [2]: 5.13 µM (active)

c1cc2[nH]c(C3CC3)nc2c2nsnc12
IC50 (H9c2): > 79 µM (inactive)

Cc1cc(C)c(NS(=O)(=O)c2ccc(O)c(C(=O)O)c2)c(C)c1
IC50 [5]: > 100 µM (not active)

COc1ccc(S(=O)(=O)N2CC(C(=O)O)Oc3ccccc32)cc1 (configuration not stated)
IC50 (Protein skinhead-1): > 100 µM (inactive)

CC(=O)c1ccc2c(c1)c1c(C)c3c[n+](C)ccc3c(C)c1n2C
GI50 (P388/ADR): 3 µM (inactive)
GI50 (SN12K1): 1.34 µM (inactive)
GI50 (P388): 0.634 µM (active)

Clc1ccc(Cc2noc(-c3cccs3)n2)cc1
IC50 (Protein skinhead-1): 4.34 µM (active)

O=C(Nc1nc(-c2cc(F)ccc2F)cs1)C1=NN(c2ccccc2)C(=O)CC1
IC50 (H9c2): > 79 µM (inactive)

CC[C@H](C)[C@@H]1NC(=O)c2cc([N+](=O)[O-])cc(F)c2NCCCC[C@@H](C(N)=O)NC(=O)[C@H](CCCCN)NC1=O
IC50 [6]: > 20 µM (inactive)

O=C(NCCc1ccccc1Cl)c1ccc2nc3ccccc3c(=O)n2c1
EC50 (H4): > 120 µM (not active)
EC50 [7]: 10.2 µM (active)
IC50 (H9c2): > 79 µM (inactive)
EC50 [8]: > 120 µM (not active)

Cc1ccc(CN(C(=O)CNC(=O)c2cccs2)C(C(=O)NCC2CCCO2)c2ccccc2)cc1 (configuration not stated)
IC50 (H9c2): > 79 µM (inactive)

CN1CCN(c2ccc(NC(=O)N3CCc4ccccc43)cc2)CC1
AC50 [9]: 2.2 µM (active)
EC50 [10]: 6.81 µM (inconclusive)
EC50 [11]: 9.49 µM (active)
EC50 [12]: < 0.16 µM (active)
AC50 [13]: > 52 µM (inactive)
EC50 [14]: > 120 µM (not active)
AC50 [15]: 4.38 µM (active)

CCc1nnc(NC(=O)CSc2nnc(CNc3ccc(OC)cc3)n2C)s1
IC50 (H9c2): 28.3 µM (active)

C[C@@H]1CCCCO[C@H](CN(C)Cc2ccc3c(c2)OCO3)[C@@H](C)CN([C@H](C)CO)C(=O)c2cc(NC(=O)Nc3ccc(C(F)(F)F)cc3)ccc2O1
AC50 [2]: 2.16 µM (active)

Fc1ccc(-c2csc(N3CCSCC3)n2)cc1
IC50 (Protein skinhead-1): > 100 µM (inactive)

CCc1ccc(C(C)NC(=O)c2cc(C)oc2C)cc1 (configuration not stated)
IC50 (H9c2): > 79 µM (inactive)

Nc1ccc(/N=N/c2ccc(/C=C/c3ccc(/N=N/c4ccc(N)c5ccc(S(=O)(=O)O)cc45)cc3S(=O)(=O)O)c(S(=O)(=O)O)c2)c2cc(S(=O)(=O)O)ccc12
GI50 (P388/ADR): > 100 µM (inactive)
GI50 (SN12K1): > 100 µM (inactive)
GI50 (P388): > 100 µM (inactive)

C[C@H]1CN([C@@H](C)CO)C(=O)Cc2cc(NS(=O)(=O)c3ccccc3)ccc2O[C@@H]1CN(C)Cc1ccc(-c2ccccc2)cc1
AC50 [2]: 5.32 µM (active)

C=C1C(=O)OCC2C(C(=O)O)=CC3C(C)C(C)=CC123 (configuration not stated)
GI50 (P388/ADR): 5.77 µM (inactive)
GI50 (SN12K1): 9.08 µM (inactive)
GI50 (P388): 5.21 µM (inactive)

COc1ccccc1CN(C)C(=O)c1cc(-c2cc(OC)c(OC)c(OC)c2)nc2ccccc12
IC50 (H9c2): 29.1 µM (active)

COc1cccc2c1C(=O)c1c(O)c3c(c(O)c1C2=O)CC(O)(C(C)=O)CC3O (configuration not stated)
GI50 (P388/ADR): 1.81 µM (inactive)
GI50 (SN12K1): 2.07 µM (inactive)
GI50 (P388): 1.09 µM (active)

N=C(Nc1ccccc1)Nc1ccccc1
EC50 [1]: 10.6 µM (active)
